According to paper PMC12867150, “A fungi-derived cyclic peptide enhances Th9-mediated antitumor immunity by targeting ZAP70 and SREBP1” (The Journal of Clinical Investigation, 2025):
Values joined by “and” are separate entries in the source; they are usually repeats but may differ in a detail not shown here. Identical values can stand only once.

What was measured:
[1] = system: Th2 cells; test: Th2 polarization, IL-4 by flow cytometry (Figure 1G); assay type: cell-based, mouse
Experimental: Naive CD4^+ T cells were isolated from the spleens of C57BL/6J or CD45.1^+ OT-II mice using the MojoSort Mouse CD4 Naive T Cell Isolation Kit (BioLegend, catalog 480040), following the manufacturer’s protocol. Purified cells were cultured in RPMI-1640 medium supplemented with 10% FBS, 1% penicillin-streptomycin, and 0.1% β-mercaptoethanol (Gibco, catalog 21985023).
T cell polarization was initiated under plate-bound anti-CD3 (2 μg/mL, clone 17A2, BioXCell, catalog BE0002) and soluble anti-CD28 (1 μg/mL, clone 37.51, BioXCell, catalog BE0015-1) stimulation, with the addition of cytokines and neutralizing antibodies specific to each subset. For Th9 cells, these included IL-4 (10 ng/mL, Peprotech, catalog 400-04), TGF-β (1 ng/mL, EPOTO Biotech, catalog HF-2021), anti–IL-12 (5 μg/mL, clone C17.8, BioXCell, catalog BE0051), and anti–IFN-γ (10 μg/mL, clone XMG1.2, BioXCell, catalog BE0055); for Th1 cells, these included IL-12 (10 ng/mL, GenScript, catalog Z03211-50) and anti–IL-4 (5 μg/mL, clone 11B11, BioXCell, catalog BE0045); for Th2 cells, these included IL-4 (50 ng/mL), anti–IFN-γ (20 μg /mL), anti–IL-12 (5 μg/mL), Th17 cells: IL-6 (20 ng/mL, EPOTO Biotech, catalog MF-1006), TGF-β (1 ng/mL), IL-1β (10 ng/mL, Peprotech, catalog AF-211-11B), anti–IFN-γ (10 μg/mL), anti–IL-12 (5 μg/mL), and anti–IL-4 (5 μg/mL); and for Tregs, these included TGF-β (3 ng/mL). […]

[2] = system: lipid species of Th9 cells; test: Untargeted lipidomics of Th9 cells (Figure 6B); assay type: cell-based, mouse; settings: day 4; result in words
Experimental: Comprehensive lipidomic profiling was performed using a liquid chromatography–mass spectrometry (LC-MS) platform. Briefly, samples were first subjected to protein precipitation and impurity removal to ensure metabolite integrity. Lipid species were then extracted using a solvent-based protocol optimized for broad lipid class coverage. LC-MS analysis was conducted in both positive and negative ionization modes to maximize lipid detection breadth. Mass spectrometry data, including MS and MS/MS spectra, were acquired using a high-resolution instrument. Lipid identification and quantification were performed using LipidSearch software (Thermo Fisher Scientific), which generated a lipid expression matrix for downstream statistical and pathway analysis.

Substance: anteiso-C15 Leu7 surfactin [EpA]
- IL-4 expression under Th2 polarization ([1]; EpA 10 μM, individual replicates, n = 4): 38.3947 and 41.0302 and 36.7821 and 38.8006
- effect on Th2 differentiation ([1]; result in words): only a minor increase in Th2 differentiation
- lipid species [2]: global reduction in lipid species
